Source: patent publication US20210024499A1, “OXIDIZED BIS(3-INDOLYL)METHANES AND USES THEREOF” (Sanford Burnam Prebys Medical Discovery Institute, priority 2018, published 2021)
Where “and” joins values, the source holds several entries; their conditions need not be identical. Identical values can stand only once.

How the values were obtained:
[1] = test system: parental HeLa cells; experiment: Annexin V/PI staining, parental HeLa; assay type: cell-based; conditions: methanesulfonate
[2] = test system: Nur77 interaction with Bcl-2; experiment: Cell-based co-immunoprecipitation of Nur77 and Bcl-2
Experimental: Western blotting and co-immunopreciptations (co-IP) were performed. Briefly, cells transfected with or without expression vectors for Nur77 and Bcl-2 were treated with test compounds for 2 hours. The effect of compounds on the interaction of endogenous or transfected Nur77 and Bcl-2 was analyzed by co-immunoprecipitation using appropriate antibodies. Proteins immunoprecipitated from cells by an appropriate anti-Nur77 or anti-Bcl-2 antibody were analyzed by Western blotting.

[3] = test system: MDA-MB-231 cells; experiment: Caspase 3 cleavage assay (Western blotting); assay type: cell-based; conditions: 6 hours, Western blotting (FIG. 2)
[4] = target: T1, Nur77 (Homo sapiens, UniProt P22736); experiment: Nur77 expression and mitochondrial targeting with BI2030, HeLa; assay type: cell-based; conditions: HeLa cells
T1 construct: expressed in transfected cells
Source text: To further characterize the effect of Compound 1 on promoting Nur77 mitochondrial targeting, we investigated the effect of Compound 1 in combination with BI2030 on Nur77 mitochondrial targeting and apoptosis induction. […] When Compound 1 and B12030 were used together, most of the BI2030-induced Nur77 protein was found in the heavy membrane fraction, and formed punctate structure in the cytoplasm, as visualized by confocal microscopy.

[5] = test system: MEF cells; experiment: Mitochondrial membrane potential (JC1), MEF; assay type: cell-based, mouse; conditions: 0.5 μM, 6 h
Experimental: (§1) Loss of mitochondrial membrane potential (Avm) represents one of the hallmarks of apoptosis. A JC-1 probe was employed to measure mitochondrial depolarization in cancer cells. MDA-MB-231 breast cancer cells were treated with different concentration of test compounds for 6 hours. JC-1 staining solution (5 μg/ml) was added at 37° C. for 20 min. After washing with PBS twice, mitochondrial membrane potentials were monitored by determining the relative amounts of dual emission from a multiple fluorescence reader. The fluorescence in cells was quantitatively analyzed by flow cytometry. Mitochondrial depolarization is depicted by an increase in the green/red fluorescence intensity ratio. ROS were monitored with the oxiadtion-senstive fluorescent probe 2′7′-dichlorodihydroflurescenin diacetate (DCF-DA).
In addition, Bcl-2^−/−MEF cells were more resistant than the parental MEF cells to Compound 1 in its induction of the mitochondrial membrane potential loss measured by JC1 staining and in the release of mitochondrial ROS (as performed in Example A-12).

[6] = test system: Bcl-2−/−HeLa cells; experiment: Annexin V/PI staining, Bcl-2 knockout HeLa; assay type: cell-based
Experimental: Knocking out Nur77 and Bcl-2 from HeLa cells employed the CRISPR/Cas9 system. gRNA targeting sequence of Nur77 (5′-[…]-3′) and Bcl-2 (5′-[…]-3′) was cloned into gRNA cloning vector Px330 (Addgene, 71707) and confirmed by sequencing. To screen for cells lacking Nur77 or Bcl-2, HeLa cells were transfected with control vector and gRNA expression vectors, followed by G418 selection (0.5mg/m1). Single colonies were subjected to Western blotting using anti-Nur77 and anti-Bcl-2 antibody to select knockout cells.
The apoptotic effect of Compound lwas also evaluated in Bcl-2 genome knockout HeLa cells generated by CRISPR/Cas9 technology (Example A-5).

[7] = test system: Nur77−/− HeLa cells; experiment: Mitochondrial ROS, Nur77 knockout HeLa; assay type: cell-based
Experimental: as §1
Furthermore, Nur77^−/−HeLa cells were more resistant than the parental HeLa cells to Compound 1 in its induction of the mitochondrial membrane potential loss measured by JC1 staining and in the release of mitochondrial ROS (as performed in Example A-12).

[8] = test system: Bcl-2−/− HeLa cells; experiment: Mitochondrial ROS, Bcl-2 knockout HeLa; assay type: cell-based
Experimental: as §1
In addition, Bcl-2^−/−HeLa cells were more resistant than the parental HeLa cells to Compound 1 in its induction of the mitochondrial membrane potential loss measured by JC1 staining and in the release of mitochondrial ROS (as performed in Example A-12).

[9] = test system: Bcl-2−/−MEFs; experiment: PARP cleavage, Bcl-2-/- MEFs; assay type: cell-based, mouse; conditions: 0.5 μM
Source text: The apoptotic effect of Compound 1 was also examined in mouse embryonic fibroblast (MEF) and MEF lacking Bcl-2 (Bcl-2^−/−MEF). […] Apoptotic cells were counted in 200 cells.

[10] = test system: MEFs; experiment: Cell viability (MTT), MEFs; assay type: cell-based, mouse; conditions: 6 hours, MTT (FIG. 8)
Experimental: Cell viability was analyzed by using a colorimetric 3-(4,5-dimethylthiazol-[…]2-yl)-2,5-diphenyletetrazolium Bromide (MTT) assay that determines mitochondrial dehydrogenase activities in the living cells with a colorimetric method. Cells treated with test compounds were incubated with MTT and their effect on the viability of the cells was assayed by the ability of treated cells to reduce the yellow tetrazolium dye MTT to its insoluble formazan, which has a purple color.
The apoptotic effect of Compound 1 was examined in mouse embryonic fibroblast (MEF) and MEF lacking Nur77 (Nur77^−/−MEF). […] Induction of PARP cleavage (as performed in Example A-7) in MEFs by Compound 1 at 0.5 μM was also attenuated in Nur77^−/−MEFs.

[11] = test system: Nur77 and pBind-RXRa-LBD-E453,6A; experiment: Mammalian one hybrid assay, RXRa-LBD/E453,6A mutant with Nur77; assay type: cell-based; conditions: cells transfected with Nur77 and pBind-RXRa-LBD-E453,6A
Experimental: HEK293T cells were co-transfected with pG5 Luciferase reporter together with the plasmid encoding RXRa-LBD fused with the Gal4 DNA-binding domain and other expression plasmids. After transfection, cells were treated with DMSO or a test compound, and assayed by using the Dual-Luciferase Reporter Assay System (Promega). Transfection efficiency was normalized to Renilla luciferase activity.
To exclude the possibility that Compound 1 acted on RXRa, Glu453 and Glu456 in the RXRa activation function 2 (AF2) region were substituted with Ala and the resulting mutant, RXRa-LBD/E453,6A, was used.

[12] = target: T2, Nur77-LBD interaction with GST-Bcl-2 (Homo sapiens, UniProt P22736); experiment: GST-pull down of Nur77-LBD by GST-Bcl-2; assay type: binding; conditions: in vitro, GST-Bcl-2, FIG. 11
T2 construct: incubated with purified His-Nur77-LBD (0.2 mg) in the presence of Compound 1; made in house
Experimental: GST or GST-Bcl-2 fusion protein (0.5 mg) was immobilized on glutathione-Sepharose beads and incubated with purified His-Nur77-LBD (0.2 mg) in the presence of Compound 1 for 1 hour at room temperature to promote GST-Bcl-2 interaction with His-Nur77-LBD. Bound Nur77-LBD was analyzed by Western blotting.

T1 sequence (P22736 whole entry): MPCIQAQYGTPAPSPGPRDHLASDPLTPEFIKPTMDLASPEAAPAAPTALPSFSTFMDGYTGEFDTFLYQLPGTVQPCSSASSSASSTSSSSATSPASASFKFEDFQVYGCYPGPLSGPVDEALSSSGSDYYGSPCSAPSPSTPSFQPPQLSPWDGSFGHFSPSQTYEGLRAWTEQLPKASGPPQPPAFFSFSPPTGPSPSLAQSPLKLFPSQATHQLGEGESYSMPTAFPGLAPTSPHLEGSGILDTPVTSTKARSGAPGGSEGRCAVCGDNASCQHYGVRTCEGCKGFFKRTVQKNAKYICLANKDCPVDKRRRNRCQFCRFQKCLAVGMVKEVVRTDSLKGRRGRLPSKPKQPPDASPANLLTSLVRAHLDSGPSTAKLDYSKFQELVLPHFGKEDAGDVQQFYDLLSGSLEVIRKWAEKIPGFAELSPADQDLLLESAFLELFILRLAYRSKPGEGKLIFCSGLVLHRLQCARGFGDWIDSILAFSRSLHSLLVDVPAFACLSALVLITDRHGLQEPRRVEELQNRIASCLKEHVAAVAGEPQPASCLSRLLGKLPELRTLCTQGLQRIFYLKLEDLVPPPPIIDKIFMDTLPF
T2 sequence (P22736 360-595 limits assumed): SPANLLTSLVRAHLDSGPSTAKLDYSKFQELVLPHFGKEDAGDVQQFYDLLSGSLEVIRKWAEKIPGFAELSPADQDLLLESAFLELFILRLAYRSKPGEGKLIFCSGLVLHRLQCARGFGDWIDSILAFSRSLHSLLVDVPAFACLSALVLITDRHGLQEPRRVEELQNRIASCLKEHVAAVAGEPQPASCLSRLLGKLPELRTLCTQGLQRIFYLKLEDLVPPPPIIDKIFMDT
T2 sequence (P10415 whole entry partner, the tested form may be a part): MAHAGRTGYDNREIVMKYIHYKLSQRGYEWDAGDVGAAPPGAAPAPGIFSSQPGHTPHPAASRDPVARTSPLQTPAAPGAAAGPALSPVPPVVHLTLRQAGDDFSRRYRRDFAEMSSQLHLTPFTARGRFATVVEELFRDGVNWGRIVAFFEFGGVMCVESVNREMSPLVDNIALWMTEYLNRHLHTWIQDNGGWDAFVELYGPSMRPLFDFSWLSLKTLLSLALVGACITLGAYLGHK

- induction of Nur77 expression ([4]; Compound 1 0.5 μM, BI2030 1 μM, 2 hours (FIG. 5)): incapable of inducing Nur77 expression
- Nur77-LBD pulled down (GST-pull down) [12]: concentration dependent manner
Compound: FC(F)(F)c1ccc([C+](c2c[nH]c3ccccc23)c2c[nH]c3ccccc23)cc1 [Compound 1, Bis(1H-indol-3-yl)(4-(trifluoromethyl)phenyl)methylium methanesulfonate]
- apoptotic effect (Annexin V/PI staining) [1]: 35.55% and 24.59%
- Nur77 interaction with Bcl-2 (Co-IP) ([2]; Nur77 transfected in HeLa cells): interacted with Bcl-2
- endogenous Nur77 immunoprecipitated with endogenous Bcl-2 ([2]; anti-Bcl-2 antibody): specifically immunoprecipitated together with endogenous Bcl-2
- Nur77 or Nur77-LBD interaction with Bcl-2 (Co-IP) ([2]; transfected in HEK293T cells): interacted with Bcl-2
- caspase 3 cleavage [3]: dose dependent induction of caspase 3 cleavage
- Nur77 mitochondrial accumulation / targeting ([4]; heavy membrane fraction, Compound 1 tested together with BI2030): able to induce mitochondrial targeting of BI2030-induced Nur77 protein
- JC1 green to red ratio (control 100%) [5]: 400%
- apoptotic effect (Annexin V/PI staining) [6]: 7.95%
- increase in mito-ROS relative to regular HeLa cells [7]: smaller increase
- increase in mito-ROS relative to regular HeLa cells [8]: smaller increase
- PARP cleavage [9]: no apparent effect
- growth of MEFs [10]: dose-dependently inhibited the growth of MEFs
- reporter transcriptional activity [11]: could still activate the reporter gene transcription
